Measured values taken from article PMC3362575, “Synthesis and Biological Evaluation of Phenanthrenes as Cytotoxic Agents with Pharmacophore Modeling and ChemGPS-NP Prediction as Topo II Inhibitors” (PLoS ONE, 2012).
≈ marks a conversion by molar mass, not a printed value. Where two headings read alike, the source gives them in different places.

Key:
Ca9-22 = assay: MTT cytotoxicity assay, Ca9-22; format: cell-based, human; settings: for IC50: Homo sapiens
Experimental: (§1) The cytotoxic assay of 11 naturally occurring and 19 synthesized phenanthrenes was carried out on a diverse set of human liver (HepG2 and Hep3B), oral (Ca9-22), lung (A549) and breast (MEA-MB-231 and MCF7) cancer cell lines, and a human fetal lung fibroblast (MRC-5) cell line (Tables 1 and 2).
(§2) Compounds were tested against human liver (HepG2 and Hep3B), oral (Ca9-22), lung (A549), breast (MEA-MB-231 and MCF7) cancer cell lines, and the human fetal lung fibroblast (MRC-5) cell line using an established colorimetric MTT assay protocol. The absorbance was measured at 550 nm using a microplate reader. The IC50 is the concentration of agent that reduced cell growth by 50% under the experimental conditions.

A549 = assay: MTT cytotoxicity assay, A549; format: cell-based, human; settings: for IC50: Homo sapiens
Experimental: as §1, §2

MDA-MB-231 = assay: MTT cytotoxicity assay, MDA-MB-231; format: cell-based, human; settings: for IC50: Homo sapiens
Experimental: as §1, §2

Hep3B = assay: MTT cytotoxicity assay, Hep3B; format: cell-based, human; settings: for IC50: Homo sapiens, Hep3B
Experimental: as §1, §2

MCF-7 = assay: MTT cytotoxicity assay, MCF-7; format: cell-based, human; settings: for IC50 / MCF-7 activity class (from IC50): Homo sapiens; for MCF-7 activity class (from IC50): MCF7, Table S3, read-out: Scale Exptl. (MCF-7 activity class)
Experimental: as §1, §2
The pharmacophore modeling with Catalyst HypoGen was performed via Discovery Studio 2.1 (Accelrys, San Diego, CA, USA). Twenty-nine phenanthrene derivatives were collected from the natural plant, C. arisanensis, and from chemical synthesis (Figure 2). Cytotoxicity against MCF-7 cells was determined by the MTT assay and the concentration (µg/mL) of test compound which inhibited 50% of the cancer cells (IC50) was used in the generation of the pharmacophore model. An IC50 value of >20 µg/mL was defined as 20 µg/mL. All experimental IC50 values spanned about 2–3 orders of magnitude from 0.09 to 20 µg/mL. The 2D/3D structures of compounds were generated using ChemBioOffice 2008 (Cambridge Scientic Computing, Cambridge, Massachusetts, USA) and then optimized in a Dreiding force field. The conformational ensemble of each compound was generated using the best conformational analysis method based on a CHARMM force field with a 20 kcal/mol energy threshold above the global minimum. A maximum limit of 255 conformations was used to cover maximum conformational space. The best 3D arrangements of chemical functionalities should explain the activity variations among the 29 compounds. Thirty runs with different parameters were performed for the best pharmacophore hypothesis. Four chemical features, including hydrogen-bond acceptor (HBA), hydrogen-bond donor (HBD), hydrophobic (HYD), and aromatic ring (AR) features, were also tested during the building of pharmacophore hypotheses (Table S1; Text S1). The best hypotheses were selected via a correlation and a cost analysis in Catalyst HypoGen.

MRC-5 = assay: MTT cytotoxicity assay, MRC-5 fetal lung fibroblast; format: cell-based, human; settings: normal fetal lung fibroblast; for IC50: Homo sapiens
Experimental: as §1, §2

HepG2 = assay: MTT cytotoxicity assay, HepG2; format: cell-based, human; settings: for IC50: Homo sapiens
Experimental: as §1, §2

human cancer cell lines = assay: MTT cytotoxicity assay, ranges over the cancer cell line panel; format: cell-based; settings: Homo sapiens
Experimental: as §1, §2

[1] = Table 2, synthesized phenanthrenes
[2] = Ca9-22, Table 1, natural phenanthrenes
[3] = A549, Table 1, natural phenanthrenes
[4] = MDA-MB-231, Table 1, natural phenanthrenes
[5] = MCF7, Table 1, natural phenanthrenes, MTT
[6] = MRC5, Table 1, natural phenanthrenes
[7] = HepG2, Table 1, natural phenanthrenes
[8] = Ca9-22, Table 2, synthesized phenanthrenes
[9] = A549, Table 2, synthesized phenanthrenes
[10] = MDA-MB-231, Table 2, synthesized phenanthrenes
[11] = MCF7, Table 2, synthesized phenanthrenes, MTT
[12] = MRC5, Table 2, synthesized phenanthrenes
[13] = HepG2, Table 2, synthesized phenanthrenes

“5,6,7,5′,6′,7′-hexamethoxy-[8,8′]bi-1,4-phenanthrenequinone [Compound 4c]” was tested, and the “IC50 Ca9-22” value (Ca9-22; [1]) was 1.90 ± 0.01 µg/mL, the “IC50 A549” value (A549; [1]) was 12.65 ± 0.48 µg/mL and the “IC50 MDA-MB-231” value (MDA-MB-231; [1]) was 4.09 ± 0.12 µg/mL. For the same compound, the “IC50 Hep3B” value (Hep3B; [1]) was 4.37 ± 0.00 µg/mL, the “IC50 MCF-7” value (MCF-7; Table 2, synthesized phenanthrenes, MTT) was 4.71 ± 0.26 µg/mL and the “Scale Exptl. (MCF-7 activity class)” value (MCF-7; Table S3) was “++ (moderately active (1.0 μg/mL < IC50 < 20.0 μg/mL, ++))”. For the same compound, the “IC50 MRC-5” value (MRC-5; [1]) was 5.37 ± 0.25 µg/mL and the “IC50 HepG2” value (HepG2; [1]) was 6.87 ± 0.10 µg/mL.
COc1cc(O)c(-c2c(O)cc(OC)c3c2CCc2cc(O)ccc2-3)c2c1-c1ccc(O)cc1CC2 [CA-11] showed an IC50 (Ca9-22; [2]) of 5.86 ± 0.06 µg/mL (≈ 12.1 µM), an IC50 (A549; [3]) of 7.4 ± 0.01 µg/mL (≈ 15.3 µM) and an IC50 (MDA-MB-231; [4]) of 7.42 ± 0.03 µg/mL (≈ 15.4 µM). It also gave an IC50 (Hep3B; Table 1, natural phenanthrenes) of 6.28 ± 0.26 µg/mL (≈ 13 µM), an IC50 (MCF-7; [5]) of 4.84 ± 0.89 µg/mL (≈ 10 µM) and an MCF-7 activity class (from IC50) (MCF-7) of 1 to 20 µg/mL. The IC50 (MRC-5; [6]) was 13.2 ± 0.33 µg/mL (≈ 27.3 µM) and the IC50 (HepG2; [7]) was 7.17 ± 0.35 µg/mL (≈ 14.9 µM).
COC1=CC(=O)c2ccc3cc(OC)cc(OC(C)=O)c3c2C1=O [Compound 7b, 5-acetoxy-3,7-dimethoxy-1,4-phenanthrenequinone] was tested, and the IC50 (Ca9-22; [8]) was 1.55 ± 0.2 µg/mL (≈ 4.75 µM), the IC50 (A549; [9]) was 1.66 ± 0.01 µg/mL (≈ 5.09 µM) and the IC50 (MDA-MB-231; [10]) was 1.61 ± 0.04 µg/mL (≈ 4.93 µM). It also gave an IC50 (human cancer cell lines; HepG2, range over five cancer cell lines, not including HepG2, read-out: IC50 against five cancer cell lines) of 0.16 to 1.66 µg/mL (≈ 0.49 to 5.09 µM), an IC50 (human cancer cell lines; range over the cancer cell lines tested, read-out: IC50 against various / all human cancer cell lines) of 0.08 to 1.66 µg/mL (≈ 0.245 to 5.09 µM) and an IC50 (Hep3B; [1]) of 0.6 ± 0.11 µg/mL (≈ 1.84 µM). It also gave an IC50 (MCF-7; [11]) of 0.53 ± 0.03 µg/mL (≈ 1.62 µM), an MCF-7 activity class (from IC50) (MCF-7) of under 1 µg/mL and an IC50 (MRC-5; [12]) of 2.64 ± 0.06 µg/mL (≈ 8.09 µM). It also gave an IC50 (HepG2; [13]) of 13.2 ± 0.25 µg/mL (≈ 40.5 µM).
Work on COc1cc2ccc3c(OC)ccc(OC)c3c2c(O)c1O [Compound 8a, 5,6-Dihydroxy-1,4,7-trimethoxy-phenanthrene] yielded an IC50 (Ca9-22; [8]) of 3.91 ± 0.07 µg/mL (≈ 13 µM), an IC50 (A549; [9]) of over 20 µg/mL and an IC50 (MDA-MB-231; [10]) of 15.6 ± 1.52 µg/mL (≈ 52 µM). For the same compound, the IC50 (Hep3B; [1]) was 5.77 ± 0.63 µg/mL (≈ 19.2 µM), the IC50 (MCF-7; [11]) was 17 ± 0.42 µg/mL (≈ 56.6 µM) and the MCF-7 activity class (from IC50) (MCF-7) was 1 to 20 µg/mL. For the same compound, the IC50 (MRC-5; [12]) was over 20 µg/mL and the IC50 (HepG2; [13]) was 19.4 ± 0.56 µg/mL (≈ 64.5 µM).
In the case of COc1cc2c(cc1O)CCc1cc(O)cc(OC)c1-2 [CA-9], the IC50 (Ca9-22; [2]) is reported as 13 ± 0.42 µg/mL (≈ 47.7 µM), the IC50 (A549; [3]) is reported as 18.1 ± 0.26 µg/mL (≈ 66.5 µM) and the IC50 (MDA-MB-231; [4]) is reported as 19.5 ± 0.58 µg/mL (≈ 71.5 µM). It also gave an IC50 (Hep3B; Table 1, natural phenanthrenes) of 12.9 ± 0.32 µg/mL (≈ 47.3 µM), an IC50 (MCF-7; [5]) of 10.2 ± 0.27 µg/mL (≈ 37.6 µM) and an MCF-7 activity class (from IC50) (MCF-7) of 1 to 20 µg/mL. It also gave an IC50 (MRC-5; [6]) of over 20 µg/mL and an IC50 (HepG2; [7]) of over 20 µg/mL.
For COc1c(O)cc2c(c1OC)-c1c(O)ccc(O)c1CC2 [CA-5], the IC50 (Ca9-22; [2]) was 12.17 ± 0.03 µg/mL (≈ 42.2 µM), the IC50 (A549; [3]) was over 20 µg/mL and the IC50 (MDA-MB-231; [4]) was 11.7 ± 0.13 µg/mL (≈ 40.4 µM). For the same compound, the IC50 (Hep3B; Table 1, natural phenanthrenes) was 9.87 ± 0.09 µg/mL (≈ 34.2 µM), the IC50 (MCF-7; [5]) was 12.7 ± 0.07 µg/mL (≈ 44.1 µM) and the MCF-7 activity class (from IC50) (MCF-7) was 1 to 20 µg/mL. It also gave an IC50 (MRC-5; [6]) of over 20 µg/mL and an IC50 (HepG2; [7]) of 17.8 ± 0.4 µg/mL (≈ 61.7 µM).
With COC1=CC(=O)c2ccc3c(-c4c(OC)c(OC)c(OC)c5c6c(ccc45)C(=O)CC(OC)(OC)C6=O)c(OC)c(OC)c(OC)c3c2C1=O [Compound 5e, 3,5,6,7,3′,3′,5′,6,7′-nonamethoxy-2′3′-dihydro-[8,8′]bi-1,4,1′,4′-phenanthrenequinone] the IC50 (Ca9-22; [8]) was 6.21 ± 0.12 µg/mL (≈ 9.04 µM), the IC50 (A549; [9]) was 7.49 ± 0.07 µg/mL (≈ 10.9 µM) and the IC50 (MDA-MB-231; [10]) was 6.74 ± 0.05 µg/mL (≈ 9.82 µM). For the same compound, the IC50 (Hep3B; [1]) was 7.38 ± 0.02 µg/mL (≈ 10.7 µM), the IC50 (MCF-7; [11]) was 9.4 µg/mL (≈ 13.7 µM) and the MCF-7 activity class (from IC50) (MCF-7) was 1 to 20 µg/mL. It also gave an IC50 (MRC-5; [12]) of 8.11 ± 0.25 µg/mL (≈ 11.8 µM) and an IC50 (HepG2; [13]) of 1.24 ± 0.08 µg/mL (≈ 1.81 µM).
Work on COc1cc2c(c(OC)c1O)C1=C(CC2)C(=O)C=CC1=O [CA-3] yielded an IC50 (Ca9-22; [2]) of 12.6 ± 0.76 µg/mL (≈ 43.8 µM), an IC50 (A549; [3]) of over 20 µg/mL and an IC50 (MDA-MB-231; [4]) of 11.9 ± 0.02 µg/mL (≈ 41.6 µM). For the same compound, the IC50 (Hep3B; Table 1, natural phenanthrenes) was 6.02 ± 0.12 µg/mL (≈ 21 µM), the IC50 (MCF-7; [5]) was 13.2 µg/mL (≈ 46.3 µM) and the MCF-7 activity class (from IC50) (MCF-7) was 1 to 20 µg/mL. For the same compound, the IC50 (MRC-5; [6]) was over 20 µg/mL and the IC50 (HepG2; [7]) was 19.76 ± 0.16 µg/mL (≈ 69 µM).
COc1cc(O)cc2c1-c1ccc(O)cc1CC2 [CA-10] was tested, and the IC50 (Ca9-22; [2]) was 6.11 ± 0.51 µg/mL (≈ 25.2 µM), the IC50 (A549; [3]) was 7.46 ± 0.32 µg/mL (≈ 30.8 µM) and the IC50 (MDA-MB-231; [4]) was 7.56 ± 0.03 µg/mL (≈ 31.2 µM). It also gave an IC50 (Hep3B; Table 1, natural phenanthrenes) of 7.24 ± 0.18 µg/mL (≈ 29.9 µM), an IC50 (MCF-7; [5]) of 6.77 ± 0.12 µg/mL (≈ 27.9 µM) and an MCF-7 activity class (from IC50) (MCF-7) of 1 to 20 µg/mL. For the same compound, the IC50 (MRC-5; [6]) was 16.4 ± 0.36 µg/mL (≈ 67.7 µM) and the IC50 (HepG2; [7]) was 7.52 µg/mL (≈ 31 µM).
In the case of COc1cc2c(c(OC)c1OC)-c1c(O)ccc(O)c1CC2 [CA-6], the IC50 (Ca9-22; [2]) is reported as 14.6 ± 0.31 µg/mL (≈ 48.2 µM), the IC50 (A549; [3]) is reported as over 20 µg/mL and the IC50 (MDA-MB-231; [4]) is reported as over 20 µg/mL. The IC50 (Hep3B; Table 1, natural phenanthrenes) was 11.5 ± 0.76 µg/mL (≈ 38 µM), the IC50 (MCF-7; [5]) was over 20 µg/mL and the MCF-7 activity class (from IC50) (MCF-7) was over 20 µg/mL. It also gave an IC50 (MRC-5; [6]) of over 20 µg/mL and an IC50 (HepG2; [7]) of over 20 µg/mL.
